Experimental data: patent US7705118B2, “Methods for preparing internally constrained peptides and peptidomimetics” (New York University, priority 2004, dated 2010)

How the values were obtained:
[1] = Circular dichroism of Bak BH3 peptides in 20% TFE/PBS; assay type: physicochemical; conditions: 20% TFE in PBS, 50 μM, 25° C., Yang's method
Procedure: The α-helical conformation of constrained peptide 10a was determined by circular dichroism spectroscopy. […] The HBS α-helix 10a is roughly 46% helical as measured by Yang's method (Chen et al., Biochemistry, 11:4120-4131 (1972), which is hereby incorporated by reference in its entirety). […]
CD spectra were recorded on AVIV 202SF CD spectrometer equipped with a temperature controller using 1 mm length cells and a scan speed of 5 nm/min at 25° C. […] The helix content of each peptide was determined from the mean residue CD at 222 nm, [θ]222 (deg cm^2 dmol^−1) corrected for the number of amide bonds (Chen et al., Biochemistry 11:4120-4131 (1972), which is hereby incorporated by reference in its entirety). Percent helicity was calculated from ratio [θ]222/[θ]max, where [θ]max=−39500×[1−(2.57/n)]. The [θ]max for HBS α-helices is calculated to be −33155 for n=16 (number of amide bonds in the peptide).

[2] = Circular dichroism of constrained peptide 3 and control peptide 1; assay type: physicochemical; conditions: aqueous buffer and TFE solutions
Procedure: The structure of constrained peptide 3 was studied with circular dichroism (“CD”). CD studies on the constrained peptide 3 and the control peptide 1 in 30 mM phosphate buffer pH 7.0 were performed to obtain a quantitative measure of the helical content. […] The relative percent helicity of peptides can theoretically be measured by the mean residue ellipticity at 222 nm (Lyu et al., “Alpha-helix Stabilization by Natural and Unnatural Amino Acids with Alkyl Side Chains,” Proc. Nat'l Acad. Sci. 88:5317-5320 (1991), which is hereby incorporated by reference in its entirety), although these estimates are not typically accurate for short helices.
CD spectra were recorded on an AVIV 202SF CD spectrometer equipped with a temperature controller using 1 mm path length cells. The scan speed was set to 5 nm/min and spectra were averaged over 5 scans. Spectral baselines were obtained under analogous conditions as that for the samples. All spectra are baseline subtracted, converted to a uniform scale of molar ellipticity, and replotted. The helix content of each peptide was determined from the mean residue CD at 222 nm, [θ]222 (deg cm^2 dmol^−1) corrected for the number of amide bonds (Chin et al., Proc. Nat'l Acad. Sci. U.S.A., 99:15416-15421 (2002); Chen et al., Biochemistry, 11:4120-4131 (1972), which are hereby incorporated by reference in their entirety). […]

Procedure for trypsin: At different time intervals, 100 μL of the above solution was taken out, quenched with 100 μL of 2% TFA aqueous solution, and then injected into reversed-phase HPLC to analyze the change in the area of the peptide peak compared to the area of internal control (tryptophan).

proteolysis in the presence of trypsin (trypsin) | percent helicity [1] [%] | CD spectrum [2] | Structure (SMILES)
rapid proteolysis | ~26 | – | CC[C@H](C)[C@H](NC(=O)[C@H](C)NC(=O)[C@H](CC(C)C)NC(=O)[C@H](CCC(N)=O)NC(=O)[C@H](CCCNC(=N)N)NC(=O)CNC(=O)[C@@H](NC(=O)[C@H](CCC(N)=O)NC(=O)CNC(C)=O)C(C)C)C(=O)N[C@H](C(=O)NCC(=O)N[C@@H](CC(=O)O)C(=O)N[C@@H](CC(=O)O)C(=O)N[C@H](C(=O)N[C@@H](CC(N)=O)C(=O)N[C@@H](CCCNC(=N)N)C(N)=O)[C@@H](C)CC)[C@@H](C)CC [peptide 9a]
– | – | featureless spectrum | COC(=O)[C@@H](NC(=O)[C@@H](NC(=O)[C@@H](NC(=O)[C@@H](NC(=O)[C@@H](NC(=O)[C@@H](NC(=O)[C@@H](NC(=O)[C@H](NCC=O)NC(C)=O)N[C@@H](C=O)CCC(=O)O)N[C@@H](C)C=O)N[C@@H](C)C=O)N[C@@H](C)C=O)N[C@@H](C)C=O)N[C@@H](C=O)CCC(=O)O)N[C@@H](C)C=O [peptide 1]
